Laboratory results: PubChem BioAssay (NCI)
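Where inhibition never reached the appropriate level, the endpoint shown equals the highest concentration tested. Otherwise, values were interpolated linearly from a five-concentration, 48-hour dose response in 96-well plates. Here, GI50 denotes the concentration required for 50% inhibition of growth. TGI: total growth inhibition.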

How the values were obtained:
Assay in all cases: NCI tumour cell line growth inhibition, 48 h
HL-60(TB) leukemia = tested on: HL-60(TB) leukemia
786-0 renal = tested on: 786-0 renal
HOP-92 NSCLC = tested on: HOP-92 NSCLC
SW-620 colon = tested on: SW-620 colon
A498 renal = tested on: A498 renal
SNB-75 CNS = tested on: SNB-75 CNS
A549 NSCLC = tested on: A549 NSCLC
SR leukemia = tested on: SR leukemia
LOX IMVI melanoma = tested on: LOX IMVI melanoma
SF-268 CNS = tested on: SF-268 CNS

Structure (SMILES) | TGI (HL-60(TB) leukemia) [µM] | TGI (786-0 renal) [µM] | TGI (HOP-92 NSCLC) [µM] | TGI (SW-620 colon) [µM] | TGI (A498 renal) [µM] | TGI (SNB-75 CNS) [µM] | TGI (A549 NSCLC) [µM] | TGI (SR leukemia) [µM] | TGI (LOX IMVI melanoma) [µM] | TGI (SF-268 CNS) [µM] | GI50 (HL-60(TB) leukemia) [µM] | GI50 (786-0 renal) [µM] | GI50 (HOP-92 NSCLC) [µM] | GI50 (SW-620 colon) [µM] | GI50 (A498 renal) [µM] | GI50 (SNB-75 CNS) [µM] | GI50 (A549 NSCLC) [µM] | GI50 (SR leukemia) [µM] | GI50 (LOX IMVI melanoma) [µM] | GI50 (SF-268 CNS) [µM]
COc1ccc(/C=C\c2cc(OC)c3c(c2)OCO3)c(O)c1O | 7.72 | 14.7 | 16.1 | 26.1 | 31.2 | 15.5 | > 100 | > 41.5 | 16.6 | 18.8 |  |  |  |  |  |  |  |  |  | 
CC(=O)[O][Hg][c]1c(N)c(C)cc(C)c1F | 5.17 | 3.32 | 2.92 | 3.21 | 15.8 | 5.25 | 28.8 |  | 2.54 | 2.7 | 1.44 | 1.79 | 1.53 | 1.44 | 5.35 | 1.6 | 9.72 | 0.338 | 0.833 | 1.22
COc1ccc(-c2cc(-c3ccc(Nc4nc(Nc5ccccc5)nc(Nc5ccc(Cl)cc5)n4)cc3)nc(N)c2C#N)cc1 | 6.41 | 2.06 | 2.62 | 2.3 | 11.1 | 2.71 | > 50 | 2.94 | 1.58 | 2.49 | 1.15 | 1.05 | 0.782 | 1.04 | 2.49 | 0.737 | 2.74 | 0.582 | 0.837 | 1.04
O=C(CN1CCN(c2cc3c(cc2F)c(=O)c(C(=O)N/N=C/c2ccccc2O)cn3C2CC2)CC1)N/N=C\c1ccccc1O |  | > 100 | > 100 | > 100 | > 100 | > 100 | > 100 | > 100 | > 75.7 | > 100 | 0.36 | 1.12 | 2.15 | 0.475 | 6.03 | 1.11 | 0.569 | 0.304 | 0.232 | 0.474
Cc1cc(=O)[nH]c2cc3oc4ccccc4c3cc12 | 59.3 | > 81.8 | > 100 | > 100 | > 100 | > 100 | > 100 | > 44.3 | > 100 | > 93.7 |  |  |  |  |  |  |  |  |  | 
Cc1cc(=O)n2[nH]c(-c3ccc(C(C)(C)C)cc3)cc2n1 | 93.8 | > 100 | 51.6 | > 100 | 36.9 | 46.8 | > 100 | > 100 | 61.6 | 72.8 | 6.9 | 10.3 | 6.6 | 4.4 | 1.54 | 7.9 | 11.6 | 8.03 | 7.39 | 7.85
O=C(NCCNc1nccc(-c2c(-c3cccc(O)c3)nc3sccn23)n1)c1ccccc1O | > 29.4 | 43.1 | 28.6 | 48.4 | 28.2 | 19.6 | > 51.1 | > 56.7 | 23.7 | 46.6 | 3.38 | 6.25 | 2.92 | 5.86 | 7.67 | 2.29 | 5.02 | 3.71 | 3.03 | 5.4
CCCCCCCC(=O)SCC/C=C/[C@@H]1CC(=O)NCc2cccc(n2)C2=N[C@@](C)(CS2)C(=O)N[C@@H](C(C)C)C(=O)N1 | > 33.3 | > 33.3 | 9.31 | > 33.3 | 6.2 | > 33.3 | > 33.3 | > 33.3 | 4.01 | > 33.3 | 0.509 | 5.52 | 0.481 | 6.33 | 0.394 | 0.223 | 0.723 | 0.498 | 0.774 | 2.28
O=C(/C=C/c1ccccc1Cl)c1ccc(Cl)c(Cl)c1 | 60.7 | 29.8 | 58.1 | 28.3 | 33.9 | 27.3 | 40.8 | 54.8 | 28 | 33.7 |  |  |  |  |  |  |  |  |  | 
C=C(CNCCO)[C@@H]1CC[C@]2(CO)CC[C@]3(C)[C@H](CC[C@@H]4[C@@]5(C)CCC(N)C(C)(C)[C@@H]5CC[C@]43C)[C@@H]12 (some centres not stated) | 4.1 | 3.31 | 2.76 | 3.75 | 22.6 | 3.93 | 6.69 | 5.22 | 3.2 | 10.3 | 1.89 | 1.63 | 1.29 | 1.89 | 9.55 | 1.4 | 2.41 | 1.9 | 1.7 | 2.61
NS(=O)(=O)c1ccccc1C(=O)N/N=C(\c1nc2ccc([N+](=O)[O-])cc2[nH]c1=O)C(O)c1ccc([N+](=O)[O-])cc1 (configuration not stated) | > 100 | > 100 | > 100 | > 100 | > 100 | > 100 | > 100 | > 100 | > 100 | > 100 |  |  |  |  |  |  |  |  |  | 
O=c1n(CC2CO2)c(=O)n(CC2CO2)n1CC1CO1 (configuration not stated) | > 49.4 | > 83.2 | > 100 | > 100 | 29.9 | > 100 | > 72 | > 100 | > 100 | > 100 | 4.99 | 4.78 | 49.3 | 22.5 | 14.1 | 15.8 | 5.9 |  | 16.7 | 15.7
O=C1/C(=C/c2ccc([N+](=O)[O-])cc2)COc2ccc(O)c(O)c21 | 6.45 | 3.59 | 4.96 | 3.07 | 3.91 | 3.82 | 5.17 | > 100 | 2.29 | 3.15 | 0.896 | 1.35 | 1.99 | 1.31 | 1.71 | 1.55 | 2.04 | 0.463 | 1.05 | 1.51
NC(CCc1nc(-c2ccc(Cl)cc2)cs1)C(=O)O (configuration not stated) | > 100 | > 100 | > 100 | > 100 | > 100 | > 100 | > 100 | > 100 | > 100 | > 100 |  |  |  |  |  |  |  |  |  | 
